Entries after “also recorded” stand apart in the source; their conditions may differ.

The nature of series [1]: Enzymatic activity of glucokinase immobilized on solid supports or electrode surfaces. The settings on record: for glucokinase activity while immobilized: on glutathione or Ni2+-containing supports. The class given is biochemical, human. On the procedure: The enzymatic activity of the wild-type GST and His-tagged glucokinases was measured while the proteins were immobilized on glutathione or Ni^2+-containing supports, respectively.
This was not a complete surprise, as the final coupling requires free amino groups of the protein. Most likely there are a significant number of such groups involved, but in the process of participating in the coupling, enzyme function is destroyed.
Each step was analyzed by bioimpedance measurements. First, nitrilotriacetic acid (NTA) ligand (FIG. 9A) was coupled to SP electrode surface using 1-ethyl-3-(3-dimethylaminopropyl)-carbodiimide (EDC) activation (FIG. 9B). Electrodes were then loaded with Ni^2+ cations. Wild-type His-GLK (1 μg) was then avidly coupled to the electrode surface, again corroborated by impedance measurements (FIG. 9C). These prepared electrodes were subsequently used as glucose biosensors.

The nature of series [2]: Glucokinase activity of purified tagged glucokinases, coupled glucose 6-P dehydrogenase/NADPH assay. Type of series: biochemical, human.
Description: Glucokinase activity was assayed as described previously [Storer, A. C., et al., Biochem. J. 141:205-209 (1974)] with the following modifications. Reactions were carried out at 25° C. in 50 nM glycylglycinate buffer, pH 7.8, containing 1 mM NADP, 100 mM KCl, 5 mM MgCl2, 1 unit of glucose 6-P dehydrogenase, 100 mM glucose, 5 mM ATP, and glucokinase in a total volume of 1 ml. All reaction mixtures were incubated at 25° C.
Production of NADPH was followed by the increase in absorbance at 340 nm using a spectrophotometer. Glucokinase activity may then be calculated using the following formula: Activity (units/ml)=(Δ OD/min)/0.15×dilution factor
A unit of activity is the amount of glucokinase which transforms, under optimal conditions, 1 μmole of substrate/min at room temperature.
The glucokinase activity of the purified glucokinases was assayed as above.
A short description of series [3]: Intrinsic fluorescence spectroscopy of His-tagged glucokinase in solution. As to conditions: 100 mM glucose, excitation 280 nm. The class given is binding, human. The protocol:
FIG. 7 depicts fluorescence spectroscopy analysis of His-tagged glucokinase. The intrinsic fluorescence intensity spectrum of His-tagged wild-type glucokinase was measured following excitation at 280 nm. The baseline spectrum of His-tagged glucokinase alone is shown (His-GLK, thin dashed line).
Intrinsic fluorescence experiments with glucokinase were performed to document and verify glucose-induced conformational changes, which is an absolute requirement for impedance biosensing to be successful. Purified wild-type N-terminal His-tagged glucokinase (10 μg) with enzyme specific activity of ≅200 U/mg was used in a 10×10 mm^2 cuvette. After the addition of 100 mM glucose, intrinsic fluorescence spectroscopy was performed (excitation wavelength 280 nm; maximum fluorescence 312 nm). There is a 20-25% increase in maximal intrinsic fluorescence at 312 nm with the addition of 100 mM glucose, reflective of conformational changes in the His-tagged glucokinase (FIG. 7). This is similar to native wild-type glucokinase [Xu L Z, Zhang W, Weber I T, Harrison R W, Pilkis S J. 1994. Site-directed mutagenesis studies on the determinants of sugar specificity and cooperative behavior of human beta-cell glucokinase. J Biol Chem 269:27458-27465; and Xu L Z, Weber I T, Harrison R W, Gidh-Jain M, Pilkis S J. 1995. […]

Series [4] is described as follows: Intrinsic fluorescence spectroscopy of His-tagged glucokinase immobilized on Ni-NTA agarose. Type of series: binding, human. As to conditions: for change of maximal intrinsic fluorescence in presence of glucose, immobilized protein: 100 mM glucose, Ni-NTA agarose bound. The protocol: FIG. 8 depicts fluorescence spectroscopy analysis of His-tagged glucokinase immobilized on Ni-NTA agarose (QIAGEN). The intrinsic fluorescence intensity spectra were measured in the absence and presence of 100 mM glucose following excitation at 280 nm. The baseline spectrum of immobilized His-tagged glucokinase alone is shown (Ni-NTA-His-GLK, thin line).
Intrinsic fluorescence experiments were performed on purified immobilized wild-type N-terminal His-tagged glucokinase (FIG. 8). […] Next, immobilized His-GLK that had been previously incubated with glucose was washed with glucose-free buffer. […] When the washed Ni^2+-bound His-GLK was incubated with glucose, again an upward shift in the fluorescence intensity occurred, indicative of a recurring conformational change in the protein.

Series [5] in a line: Impedance biosensing with His-GLK immobilized on Ni2+-NTA screen-printed electrodes. The arrangement: species or system human. As to conditions: 100 mM glucose, Ni2+-NTA screen-printed electrode. The protocol: FIG. 9 depicts A) Immobilized-metal affinity chromatography (IMAC). Adjacent histidine residues in His-tagged proteins interact with the Ni^2+-NTA matrix. B-D) Typical Nyquist diagrams obtained for different electrode surface conditions. The imaginary (Zi) and real (Zr) complex impedence elements were calculated by computer following impedence measurements. B) Modification of screen-printed electrode (SPE) with NTA ligand. Nitrilotriacetic acid (NTA) ligand was coupled to the bare SPE electrode surface using 1-ethyl-3-(3-dimethylaminopropyl)-carbodiimide (EDC) activation. C) Immobilization of glucokinase. The SPE was loaded with Ni^2+ cations (Ni2+) and His-tagged wild-type glucokinase (GLK) immobilized on the surface. D) Detection of glucose.
To establish the use of modified re-engineered glucokinase molecules as potential mediators of glucose recognition, experiments were performed using impedance biosensing technology. The initial objectives were to covalently immobilize wild-type glucokinase on two potential electrode substrates: silicon (Si; industry standard), and screen-printed graphite (SP) electrodes [Marquette, C. A. et al., Anal. Chem., 78:959-964 (2006)]. Impedance measurements were used to monitor the changes of glucokinase in the presence of glucose. […]
Each step was analyzed by bioimpedance measurements. […]

Take “glucokinase: human wild-type glucokinase, hexokinase family enzyme binding D-glucose”: the “enzyme activity after covalent coupling to electrode surface” value in series [1] (nitrobenzenediazoniun/glutaraldehyde coupling) is on record as “total loss of enzyme activity”.
Turning to “His-GLK: wild-type human liver glucokinase with N-terminal polyhistidine tag, expressed from pET-15b in E. coli”, in series [2] (purified affinity-tagged protein, 100 mM glucose, 5 mM ATP, 25° C.), the glucokinase enzymatic activity result is recorded as “expected enzymatic activity; also recorded: significant glucokinase enzymatic activity”. Further, the enzyme specific activity in series [2] (purified wild-type N-terminal His-tagged glucokinase) was approximately 200 U/mg. Also, the “glucokinase activity while immobilized” value in series [1] is “retained glucokinase activity”; in series [1] (listed as His-tagged glucokinase), “retained full enzymatic activity”. In series [3], the “increase in maximal intrinsic fluorescence at 312 nm” value is on record as 20-25%. Moreover, in series [3] (in solution), the “change of maximum intrinsic fluorescence intensity on glucose addition” value is given as “increase in the maximum fluorescence intensity”. In addition, the “change of maximal intrinsic fluorescence in presence of glucose, immobilized protein” value in series [4] is recorded as “increase in the maximal intrinsic fluorescence”; in series [4] (listed as Ni-NTA-His-GLK), “maximum fluorescence intensity increased”. Besides, the “reversibility of glucose binding” value in series [4] (immobilized, washed with glucose-free buffer) is on record as “reversible”. Further, the “impedance change in the presence of glucose” value in series [5] is “significant impedance changes”; in series [5] (listed as His-tagged GLK), “significant shift to the left in the curve”.

Values taken from patent US20070219346A1, “Glucose sensor and uses thereof” (McGill University, priority 2002, published 2007).
